# US20230357314A1, “METHODS FOR ULTRAFAST FORMATION OF DISULFIDE BONDS IN PEPTIDES AND PROTEINS” (TECHNION RESEARCH & DEVELOPMENT FOUNDATION LIMITED, priority 2020, published 2023)
# Read-outs that look alike come from different tables or passages of the source. Positions of bridges follow the written chain, without caps; N, C: chain ends. Residues, ends and D or L forms follow the SMILES beside them.
# How the values were obtained:
# [1] = system: methicillin resistant Staphylococcus aureus (MRSA); assay: microbe, parasite or virus in culture; conditions: 17 h
# [2] = system: methicillin resistant Staphylococcus aureus (MRSA); conditions: for MIC: MRSA growth after 17 h at 37° C., LB medium, absorbance at 600 nm, triplicate
MIC [1] [µM],Compound,MIC [2] [µM],"improvement of the antimicrobial activity ([2]; MRSA MIC analysis, worded as 'even in comparison to' trimethoprim (TMP))","enhanced activity relative to the wild type plectasin ([2]; MRSA MIC, relative to wild type plectasin)"
2,"COc1cc(Cc2cnc(N)nc2N)cc(OC)c1OC [TMP, trimethoprim]",,,
,"CC[C@H](C)[C@@H]1NC(=O)[C@H](CO)NC(=O)[C@H](CCCCN)NC(=O)[C@@H]2CSSC[C@@H](C(=O)N[C@@H](Cc3ccc(O)cc3)C(N)=O)NC(=O)[C@H](CCCCN)NC(=O)[C@@H]3CSSC[C@H](NC(=O)[C@H](CCC(N)=O)NC(=O)[C@H](CCSC)NC(=O)[C@H](CC(=O)O)NC(=O)[C@H](CC(=O)O)NC(=O)[C@H](CCC(=O)O)NC(=O)[C@H](CC(=O)O)NC(=O)[C@H](Cc4c[nH]c5ccccc45)NC(=O)[C@@H]4CCCN4C(=O)CNC(=O)[C@H](CC(N)=O)NC(=O)[C@@H](NC(=O)CNC(=O)[C@H](Cc4ccccc4)NC(=O)CN)CSSC[C@H](NC(=O)[C@H](Cc4ccc(O)cc4)NC(=O)CNC(=O)CNC(=O)[C@H](CCCCN)NC(=O)[C@H](Cc4ccc(O)cc4)NC(=O)CNC(=O)[C@H](CCCCN)NC1=O)C(=O)N[C@@H](C)C(=O)N[C@@H](CCCCN)C(=O)NCC(=O)NCC(=O)N[C@@H](Cc1ccccc1)C(=O)N[C@@H](C(C)C)C(=O)N3)C(=O)N[C@@H](Cc1c[nH]cn1)C(=O)N[C@@H](CC(N)=O)C(=O)N[C@@H](Cc1c[nH]cn1)C(=O)N2 [plectasin WT, plectasin, reference compound]",5,,
,"CC[C@H](C)[C@@H]1NC(=O)[C@H](CO)NC(=O)[C@H](CCCCN)NC(=O)[C@@H]2CSSC[C@@H](C(=O)N[C@@H](Cc3ccc(O)cc3)C(N)=O)NC(=O)[C@H](CCCCN)NC(=O)[C@@H]3CSSC[C@H](NC(=O)[C@H](CCC(N)=O)NC(=O)[C@H](C)NC(=O)[C@H](CC(=O)O)NC(=O)[C@H](CC(=O)O)NC(=O)[C@H](CCC(=O)O)NC(=O)[C@H](CC(=O)O)NC(=O)[C@H](Cc4c[nH]c5ccccc45)NC(=O)[C@@H]4CCCN4C(=O)CNC(=O)[C@H](CC(N)=O)NC(=O)[C@@H](NC(=O)CNC(=O)[C@H](Cc4ccccc4)NC(=O)CN)CSSC[C@H](NC(=O)[C@H](Cc4ccc(O)cc4)NC(=O)CNC(=O)CNC(=O)[C@H](CCCCN)NC(=O)[C@H](Cc4ccc(O)cc4)NC(=O)CNC(=O)[C@H](CCCCN)NC1=O)C(=O)N[C@@H](C)C(=O)N[C@@H](CCCCN)C(=O)NCC(=O)NCC(=O)N[C@@H](Cc1ccccc1)C(=O)N[C@@H](C(C)C)C(=O)N3)C(=O)N[C@@H](Cc1c[nH]cn1)C(=O)N[C@@H](CC(N)=O)C(=O)N[C@@H](Cc1c[nH]cn1)C(=O)N2 [plectasinMet13Ala] (H-GFGCNGPWDEDDAQCHNHCKSIKGYKGGYCAKGGFVCKCY-NH2; disulfide 4-30, 15-37, 19-39; N-terminus assumed)",1.25,four-fold,four-fold
